Assay results from patent EP2364976B1, “S1P receptor modulating compounds and use thereof” (EPIX Pharmaceuticals, Inc., priority 2007, dated 2007).
pEC50: −log10 of the molar value. “And” between values parts separate entries of the source, which are not always exact repeats. Equal entries are not always repeated.

Biological target: T1, hS1P1 (Homo sapiens, UniProt P21453)
T1 construct: expressed in transfected cells
Test: hS1P1 EC50 (S1P receptor Ca2+ flux protocol, FLIPR, CHO K1 Gqi5 cells)
Type: cell-based
Conditions: several values per compound = repeat determinations as printed
Protocol: S1P receptor activity may also be measured by an SIP receptor (e.g., hS1P1, hS1P3, rS1P1, rS1P3 and parental cell) Ca^2+ Flux protocol as described below: • 1. Material • a. FLIPR buffer: 1x HBSS; 10mM HEPES • b. Cell growth media: • i. human and rat S1P1 and S1P3: F12-Ham's media; 10% FBS (qualified); 1x Pen/Strep/Glu; 300ug/mL Hygromycin; 400ug/mL Geneticin ii. Parental cell: human and rat S1P and S1P3: F12-Ham's media; 10% FBS (qualified); 1x Pen/Strep/Glu; 300ug/mL Hygromycin; • c. Cell seeding media; F12-Ham's media; 10% FBS (Charcoal/dextran stripped); 1x Pen/Strep/Glu; • d. Cell dissociation buffer: Versene from Invitrogen • e. Agonist (SIP) dissolving buffer: 0.4% (w/v) fatty-acid free BSA (Sigma # A8806) in FLIPR buffer • f. FLIPR dye: BD PBX Calcium assay kit; Cat#641077 is composed of Calcium indicator (Cat#850000) and 100x PBX signal enhancer (cat#850001). The 100x PBX signal enhancer is diluted into FLIPR buffer 1:100 and the calcium indicator is then added at 1:1000 ratio. • g. Cell plates (96-well): Greiner Cat#655090 • h. Compound plates (96-well): Costar #3365 • i. S1P stock solution preparation: S1P is purchased from CalBioChem (Catalog # 970471; 1mg vial; custom prep using methanol, & nitrogen gas drying inside glass vial; Storage @ -20°C). Dissolve 1 vial of SIP into 26.4ml of agonist dissolving buffer in a 50ml centrifuge tube; Remove label from bottle of SIP, open and drop entire bottle into tube. Sonicate at 37° for ½ hour. Clear solution of 100µM will result. This stock solution is aliquoted and stored at -80C • 2. Cell line maintenance • a. V5 tags were added at the N-terminus of hS1P1, hS1P3, rS1P1 and rS1P3. All four genes were transfected into CHO K1 cells which stably express Gqi5. • b. hS1P1 and hS1P3 were established as stable clones and rS1P1 and rS1P3 were sorted by anti V5 tag and established as stable pools after sorting. • c. Parental cell line CHO/K1 Gqi5 is used as the control. • d. All the cells are maintained in cell growth media and splitted twice a week using Versene. • e. All the cell lines are used under passage 30. • 3. Assay protocol • a. Cell seeding: Cells are lifted from the flask by Versene and seeded in cell plates at 50K/well in cell seeding media. Cells are grown overnight at 37 degree. • b. Cell loading: Cell seeding media is discarded. Cells are loaded with 50ul of FLIPR dye at RT for 90 min. Signal is stable for up to 5 h after dye loading. • c. Agonist (S1P) preparation: Frozen stock of S1P is thawed out and sonicated at 37c for 30 minutes every time before use. The stock is then diluted into FLIPR buffer at proper concentration. • d. Compound preparation: Compounds are dissolved in DMSO. A 3x, 10 point dilution of the compounds are carried out in DMSO. Then the compounds are diluted into assay buffer133x so that the DMSO concentration is 0.75%. • e. Activity measurement: The fluorescence signal change of the cells upon compound addition is monitored in FLIPRtetra. 25ul of compound is transferred into the cell plates (50ul of FLIPR dye; DMSO concentration: 0.25%). Signal is recorded for 90sec after compound addition. Then 50ul of 500nM SIP is added in the cell plate, and signal is recorded for 90 seconds upon addition. • 4. Data analysis • a. Peak value is calculated for each compound/S1P addition • b. The peak value of S1P at 200nM is used as high control (100%), and the peak value of buffer only is used as low control (0%). • c. Data is normalized against high and low controls using the following equation: POC_S = 100*(RAW-LO)/(HI-LO) [formula] • d. Peak value is plotted against the concentration of compound. • e. Curve is fitted using the 4 parameter fit: Y = (A+(B/(1+(((x/C))^(∧)D)))) [formula] where: Y is POC_S (or POC) • X is compound concentration • A is the minimum (EC50min or IC50min) • B is the maxmum (EC50max or IC50max) • C is the inflection point (EC50IP or IC50IP) • D is the hill slope (EC50 slope or IC50 slope).

T1 sequence (P21453 whole entry): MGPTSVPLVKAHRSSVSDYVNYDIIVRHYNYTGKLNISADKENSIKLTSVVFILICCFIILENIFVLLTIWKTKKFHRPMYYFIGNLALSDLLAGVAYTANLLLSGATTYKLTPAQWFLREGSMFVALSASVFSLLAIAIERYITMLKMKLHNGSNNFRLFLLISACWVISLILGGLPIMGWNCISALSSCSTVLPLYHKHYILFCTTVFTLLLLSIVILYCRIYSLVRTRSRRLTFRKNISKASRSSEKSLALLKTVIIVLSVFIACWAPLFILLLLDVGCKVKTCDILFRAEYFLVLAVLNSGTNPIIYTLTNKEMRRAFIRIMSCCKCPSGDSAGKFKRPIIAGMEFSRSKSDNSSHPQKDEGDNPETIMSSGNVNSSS

pEC50 | SMILES
5.64 | NC(=O)CC(NCc1ccc(-c2cc3cc(Cc4ccccc4)ccc3o2)c(F)c1)C(=O)O (stereo not shown) [Reference Compound 83, 4-Amino-2-(4-(5-benzylbenzofuran-2-yl)-3-fluorobenzylamino)-4-oxobutanoic acid]
6.39 | O=C(O)C1CN(Cc2ccc(-c3cc4cc(Cc5ccccc5)ncc4o3)c(F)c2)C1 [Reference Compound 108, 1-((4-(5-Benzylfuro[2,3-c]pyridin-2-yl)-3-fluorophenyl)methyl)azetidine-3-carboxylic acid]
6.24 | O=C(O)C1CN(Cc2ccc(-c3cc4cc(CCc5ccccc5)ccc4o3)cc2)C1 [Reference Compound 11, 1-((4-(5-phenethylbenzofaran-2-yl)phenyl)methyl)azetidine-3-carboxylic acid]
6.21 and 6.48 | O=C(O)C1CN(Cc2ccc(-c3cc4cc(Cc5ccccc5)ccc4o3)cc2F)C1 [Reference Compound 14, 1-((4-(5-Benzylbenzofuran-2-yl)2-fluorophenyl)methyl)azetidine-3-carboxylic acid]
5.32 | O=C(O)C1CCN(Cc2ccc(-c3cc4cc(Cc5ccccc5)ccc4o3)cc2)CC1 [Reference Compound 9, 1-(4-(5-Benzylbenzofuran-2-yl)phenyl)methyl piperldine4-carboxylic acid]
5.89 | CC(CNCc1ccc(-c2cc3cc(Cc4ccccc4)ccc3o2)c(F)c1)C(=O)O (stereo not shown) [Reference Compound 82, 3-(4-(5-Benzylbenzofuran-2-yl)-3-fluorobenzylamino)-2-methylpropanoic acid]
6.33 | O=C(O)C1CN(Cc2cnc(-c3cc4cc(Cc5ccccc5)ccc4o3)c(F)c2)C1 [Reference Compound 84, 1-((6-(5-Benzylbenzofuran-2-yl)-5-fluoropyridin-3-yl)methyl)azetidine-3-carboxylic acid]
7.06 | O=C(O)C1CN(Cc2ccc(-c3cc4cc(Cc5ncccn5)ccc4o3)c(F)c2)C1 [Reference Compound 100]
5.88 | O=C(O)C1CN(Cc2cnc(-c3cc4cc(Cc5ccccc5)ccc4o3)nc2)C1 [Reference Compound 121, 1-((2-(5-Benzylbenzofuran-2-yl)pyrimidin-5-yl)methyl)azetidine-3-carboxylic acid]
5.44 | O=C(O)C1CN(Cc2ccc(-c3cc4cc(-c5cccnc5)ccc4o3)cc2)C1 [Reference Compound 12, 1-(4-(5-(pyridin-3-yl)benzofuran-2-yl)benzyl)azetidine-3-carboxylic acid]
< 4.60 | O=C(O)C1CN(Cc2ccc(-c3cc4cc(OCC5CCCC5)ccc4o3)c(F)c2)CCO1 (stereo not shown) [Reference Compound 55, 4-((4-(5-(cyclopentylmethoxy)benzofuran-2-yl)-3-fluorophenyl)methyl)morpholine-2-carboxylic acid]
6.83 | O=C(O)C1CN(Cc2ccc(-c3nc4ccc(Cc5ccccc5)cc4s3)c(F)c2)C1 [Reference Compound 118, 1-((4-(6-Benzylbenzo[d]thiazol-2-yl)-3-fluorophenyl)methyl)azetidine-3-carboxylic acid]
5.54 | Cc1cccc(-c2ccc3oc(-c4ccc(CN5CC(C(=O)O)C5)cc4)cc3c2)n1 [Reference Compound 18, 1-(4-(5-(6-methylpyridin-2-yl)benzofuran-2-yl)benzyl)azetidine-3-carboxylic acid]
6.20 | CC(C)CCc1ccc2oc(-c3ccc(CN4CC(C(=O)O)C4)cc3)cc2c1 [Reference Compound 20, 1-((4-(5-Isopentylbenzofuran-2-yl)phenyl)methyl)azetidine-3-carboxylic acid]
6.62 | Cc1cc(CN2CC(C(=O)O)C2)ccc1-c1cc2cc(Cc3ccccc3)ccc2o1 [Reference Compound 43, 1-((4-(5-Benzylbenzofuran-2-yl)-3-methylphenyl)methyl)azetidine-3-carboxylic acid]
5.59 and 6.29 | O=C(O)C1CN(Cc2ccc(-c3cc4cc(Cc5ccccc5)ccc4o3)nc2)C1 [Reference Compound 32, 1-((6-(5-benzylbenzofuran-2-yl)pyridin-3-yl)methyl)azetidine-3-carboxylic acid]
7.92 | Cc1ccc(Cc2ccc3oc(-c4ccc(CN5CC(C(=O)O)C5)cc4F)cc3c2)cc1 [Reference Compound 86, 1-(3-Fluoro-4-(5-(4-methylbenzyl)benzofuran-2-yl)benzyl)azetidine-3-carboxylic acid]
6.38 | Cc1nc(-c2cc3cc(Cc4ccccc4)ccc3o2)ccc1CN1CC(C(=O)O)C1 [Reference Compound 122, 1-((6-(5-Benzylbenzofuran-2-yl)-2-methylpyridin-3-yl)methyl)azetidine-3-carboxylic acid]
7.00 | CC(c1ccccc1)c1ccc2oc(-c3ccc(CN4CC(C(=O)O)C4)cc3F)cc2c1 (stereo not shown) [Reference Compound 90, 1-((3-Fluoro-4-(5-(1-phenylethyl)benzofuran-2-yl)phenyl)methyl)azetidine-3-carboxylic acid]
7.04 | O=C(O)C1CN(Cc2ccc(-c3cc4cc(COC5CCCCC5)ccc4o3)c(F)c2)C1 [Reference Compound 70]
7.17 | O=C(O)C1CN(Cc2ccc(-c3cc4cc([S+]([O-])c5ccccc5)ccc4o3)c(F)c2)C1 (stereo not shown) [Reference Compound 65]
8.15 | O=C(O)C1CN(Cc2ccc(-c3cc4ccc(Cc5ccccc5)cc4o3)c(F)c2)C1 [Reference Compound 92, 1-((4-(6-Benzylbenzofuran-2-yl)-3-fluorophenyl)methyl)azetidine-3-carboxylic acid]
5.59 | O=C(O)C1CN(Cc2ccc(-c3cc4cc(Cc5ccccc5)nc(Cl)c4o3)c(F)c2)C1 [Reference Compound 107, 1-((4-(5-Benzyl-7-chlorofuro[2,3-c]pyridin-2-yl)-3-fluorophenyl)methyl)azetidine-3-carboxylic acid]
6.44 | CC(C)(c1ccccc1)c1ccc2oc(-c3ccc(CN4CC(C(=O)O)C4)cc3F)cc2c1 [Reference Compound 97, 1-((3-Fluoro-4-(5-(2-phenylpropan-2-yl)benzofuran-2-yl)phenyl)methyl)azetidine-3-carboxylic acid]
5.38 | O=C(O)CCN1CCc2cc(-c3cc4cc(C5CCCC5)ccc4o3)ccc2C1 [Reference Compound 37, 3-(6-(5-cyclopentylbenzofuran-2-yl)-3,4-dihydroisoquinolin-2(1H)-yl)propanoic acid]
6.14 and 6.52 | O=C(O)C1CN(Cc2ccc(-c3cc4cc(C5CCCCC5)ccc4o3)nc2)C1 [Reference Compound 17, 1-((6-(5-cyclohexylbenzofuran-2-yl)pyridin-3-yl)methyl)azetidine-3-carboxylic acid]

SMILES | pEC50
O=C(O)C1CN(Cc2ccc(-c3cc4cc(Sc5ccccc5)ccc4o3)c(F)c2)C1 [Reference Compound 64] | 6.85
CCCCOc1ccc2oc(-c3ccc(CN4CC(C(=O)O)C4)s3)cc2c1 [Reference Compound 25, 1-((5-(5-butoxybenzofuran-2-yl)thiophen-2-yl)methyl)azetidine-3-carboxylic acid] | 5.80
